Where two headings read alike, the source gives them in different places.
What was measured:
[1] = system: Beet Armyworm (Spodoptera exigua, LAPHEG); experiment: Insecticidal test for beet armyworm (BAW), 128-well diet tray assay; type: in vivo; details: 168 h, read-out: BAW rating, % Control (or Mortality)
Method: Insecticidal Test for Beet Armyworm (Spodoptera exigua, LAPHEG) (“BAW”)
Bioassays on beet armyworm (BAW; Spodoptera exigua: Lepidoptera) are conducted using a 128-well diet tray assay. One to five second instar BAW larvae are placed in each well (3 mL) of the diet tray that had been previously filled with 1 mL of artificial diet to which 50 μg/cm^2 of the test compound (dissolved in 50 μL of 90:10 acetone-water mixture) had been applied (to each of eight wells) and then allowed to dry. Trays are covered with a clear self-adhesive cover, vented to allow gas exchange, and held at 25° C., 14:10 light-dark for five to seven days. Percent mortality is recorded for the larvae in each well; activity in the eight wells is then averaged. In the reporting of the results, the “BAW & CL Rating Table” was used.

[2] = system: Cabbage Looper (Trichloplusia ni, TRIPNI); experiment: Insecticidal test for cabbage looper (CL), 128-well diet tray assay; type: in vivo; details: Trichoplusia ni, 168 h, read-out: CL rating, % Control (or Mortality)
Method: Insecticidal Test for Cabbage Looper (Trichloplusia ni, TRIPNI) (“CL”)
Bioassays on cabbage looper (CL; Trichloplusia ni: Lepidoptera) are conducted using a 128-well diet tray assay. One to five second instar CL larvae are placed in each well (3 mL) of the diet tray that had been previously filled with 1 mL of artificial diet to which 50 μg/cm^2 of the test compound (dissolved in 50 μL of 90:10 acetone-water mixture) had been applied (to each of eight wells) and then allowed to dry. Trays are covered with a clear self-adhesive cover, vented to allow gas exchange, and held at 25° C., 14:10 light-dark for five to seven days. Percent mortality is recorded for the larvae in each well; activity in the eight wells is then averaged. In the reporting of the results, the “BAW & CL Rating Table” was used.

[3] = 50 μg/cm^2 on artificial diet, second instar larvae, five to seven days, 25° C.

| Structure (SMILES) | mortality at 50 µg/cm2 [1, 3] [%] | mortality at 50 µg/cm2 [2, 3] [%] | mortality at 50 µg/cm2 [1] [%] | mortality at 50 µg/cm2 [2] [%] |
| --- | --- | --- | --- | --- |
| Cc1ccc(C(C)C)c(N2C(=O)CS/C2=N\C(=O)OCCc2ccc(-c3ncn(-c4ccc(OC(F)(F)F)cc4)n3)cc2)c1 [A1, 4-(1-(4-(trifluoromethoxy)phenyl)-1H-1,2,4-triazol-3-yl)phenethyl (Z)-(3-(2-isopropyl-5-methylphenyl)-4-oxothiazolidin-2-ylidene)carbamate] | 50 to 100 | 50 to 100 |  |  |
| Cc1ccc(C(C)C)c(N2C(=O)CS/C2=N\C(=O)Oc2ccc(-c3ncn(-c4ccc(OC(F)(F)F)cc4)n3)cc2)c1 [A3, 4-(1-(4-(Trifluoromethoxy)phenyl)-1H-1,2,4-triazol-3-yl)phenyl (Z)-(3-(2-isopropyl-5-methylphenyl)-4-oxothiazolidin-2-ylidene)carbamate] |  |  | 0 | 0 |
| Cc1ccc(C(C)C)c(N2C(=O)CS/C2=N\C(=O)OCC(F)(F)c2ccc(-c3ncn(-c4ccc(OC(F)(F)F)cc4)n3)cc2)c1 [A4, 2,2-difluoro-2-(4-(1-(4-(trifluoromethoxy)phenyl)-1H-1,2,4-triazol-3-yl)phenyl)ethyl (Z)-(3-(2-isopropyl-5-methylphenyl)-4-oxothiazolidin-2-ylidene)carbamate] | 50 to 100 | 50 to 100 |  |  |
| Cc1ccc(C(C)C)c(N2C(=O)CS/C2=N\C(=O)OCC(F)c2ccc(-c3ncn(-c4ccc(OC(F)(F)F)cc4)n3)cc2)c1 (stereo not shown) [A20, 2-fluoro-2-(4-(1-(4-(trifluoromethoxy)phenyl)-1H-1,2,4-triazol-3-yl)phenyl)ethyl (Z)-(3-(2-isopropyl-5-methylphenyl)-4-oxothiazolidin-2-ylidene)carbamate] | 50 to 100 | 50 to 100 |  |  |
| Cc1ccc(OCC(F)(F)F)c(N2C(=O)CS/C2=N\C(=O)OCC(F)c2ccc(-c3ncn(-c4ccc(OC(F)(F)F)cc4)n3)cc2)c1 (stereo not shown) [A21, 2-Fluoro-2-(4-(1-(4-(trifluoromethoxy)phenyl)-1H-1,2,4-triazol-3-yl)phenyl)ethyl (Z)-(3-(5-methyl-2-(2,2,2-trifluoroethoxy)phenyl)-4-oxothiazolidin-2-ylidene)carbamate] | 50 to 100 | 50 to 100 |  |  |
| O=C(/N=C1\SCC(=O)N1c1cc(Cl)ccc1OCC(F)(F)F)OCC(F)c1ccc(-c2ncn(-c3ccc(OC(F)(F)F)cc3)n2)cc1 (stereo not shown) [A22, 2-Fluoro-2-(4-(1-(4-(trifluoromethoxy)phenyl)-1H-1,2,4-triazol-3-yl)phenyl)ethyl (Z)-(3-(5-chloro-2-(2,2,2-trifluoroethoxy)phenyl)-4-oxothiazolidin-2-ylidene)carbamate] | 50 to 100 | 50 to 100 |  |  |
| CC(C)c1ccc(Cl)cc1N1C(=O)CS/C1=N\C(=O)OCC(F)c1ccc(-c2ncn(-c3ccc(OC(F)(F)F)cc3)n2)cc1 (stereo not shown) [A23, 2-Fluoro-2-(4-(1-(4-(trifluoromethoxy)phenyl)-1H-1,2,4-triazol-3-yl)phenyl)ethyl (Z)-(3-(5-chloro-2-isopropylphenyl)-4-oxothiazolidin-2-ylidene)carbamate] | 50 to 100 | 50 to 100 |  |  |
| CC(C)c1ccccc1N1C(=O)CS/C1=N\C(=O)OCC(F)c1ccc(-c2ncn(-c3ccc(OC(F)(F)C(F)(F)F)cc3)n2)cc1 (stereo not shown) [A24, 2-Fluoro-2-(4-(1-(4-(perfluoroethoxy)phenyl)-1H-1,2,4-triazol-3-yl)phenyl)ethyl (Z)-(3-(2-isopropylphenyl)-4-oxothiazolidin-2-ylidene)carbamate] | 50 to 100 | 50 to 100 |  |  |
| CC(C)c1ccc(Cl)cc1N1C(=O)CS/C1=N\C(=O)OCC(F)c1ccc(-c2ncn(-c3ccc(OC(F)(F)C(F)(F)F)cc3)n2)cc1 (stereo not shown) [A25, 2-Fluoro-2-(4-(1-(4-(perfluoroethoxy)phenyl)-1H-1,2,4-triazol-3-yl)phenyl)ethyl (Z)-(3-(5-chloro-2-isopropylphenyl)-4-oxothiazolidin-2-ylidene)carbamate] | 50 to 100 | 0 to 50 |  |  |
| COCc1ccccc1N1C(=O)CS/C1=N\C(=O)OCCc1ccc(-c2ncn(-c3ccc(OC(F)(F)F)cc3)n2)cc1 [A27, 4-(1-(4-(trifluoromethoxy)phenyl)-1H-1,2,4-triazol-3-yl)phenethyl (Z)-(3-(2-(methoxymethyl)phenyl)-4-oxothiazolidin-2-ylidene)carbamate] | 50 to 100 | 50 to 100 |  |  |
| CCC(C)c1ccc(OC)cc1N1C(=O)CS/C1=N\C(=O)OCCc1ccc(-c2ncn(-c3ccc(OC(F)(F)F)cc3)n2)cc1 (stereo not shown) [A28, 4-(1-(4-(Trifluoromethoxy)phenyl)-1H-1,2,4-triazol-3-yl)phenethyl (Z)-(3-(2-(sec-butyl)-5-methoxyphenyl)-4-oxothiazolidin-2-ylidene)carbamate] | 50 to 100 | 50 to 100 |  |  |
| O=C(/N=C1\SCC(=O)N1c1cc(Cl)ccc1OC(F)(F)F)OCCc1ccc(-c2ncn(-c3ccc(OC(F)(F)F)cc3)n2)cc1 [A29, 4-(1-(4-(Trifluoromethoxy)phenyl)-1H-1,2,4-triazol-3-yl)phenethyl (Z)-(3-(5-chloro-2-(trifluoromethoxy)phenyl)-4-oxothiazolidin-2-ylidene)carbamate] | 50 to 100 | 50 to 100 |  |  |
| O=C(/N=C1\SCC(=O)N1c1cc(Cl)ccc1OCC(F)(F)F)OCCc1ccc(-c2ncn(-c3ccc(OC(F)(F)F)cc3)n2)cc1 [A30, 4-(1-(4-(Trifluoromethoxy)phenyl)-1H-1,2,4-triazol-3-yl)phenethyl (Z)-(3-(5-chloro-2-(2,2,2-trifluoroethoxy)phenyl)-4-oxothiazolidin-2-ylidene)carbamate] | 50 to 100 | 50 to 100 |  |  |
| Cc1ccc(OCC(F)(F)F)c(N2C(=O)CS/C2=N\C(=O)OCCc2ccc(-c3ncn(-c4ccc(OC(F)(F)F)cc4)n3)cc2)c1 [A31, 4-(1-(4-(Trifluoromethoxy)phenyl)-1H-1,2,4-triazol-3-yl)phenethyl (Z)-(3-(5-methyl-2-(2,2,2-trifluoroethoxy)phenyl)-4-oxothiazolidin-2-ylidene)carbamate] | 50 to 100 | 50 to 100 |  |  |
| CCc1cccc(C)c1N1C(=O)CS/C1=N\C(=O)OCCc1ccc(-c2ncn(-c3ccc(OC(F)(F)F)cc3)n2)cc1 [A32, 4-(1-(4-(Trifluoromethoxy)phenyl)-1H-1,2,4-triazol-3-yl)phenethyl (Z)-(3-(2-ethyl-6-methylphenyl)-4-oxothiazolidin-2-ylidene)carbamate] | 0 | 50 to 100 |  |  |
| O=C(/N=C1\SCC(=O)N1c1cccc2c1CCCC2)OCCc1ccc(-c2ncn(-c3ccc(OC(F)(F)F)cc3)n2)cc1 [A33, 4-(1-(4-(Trifluoromethoxy)phenyl)-1H-1,2,4-triazol-3-yl)phenethyl (Z)-(4-oxo-3-(5,6,7,8-tetrahydronaphthalen-1-yl)thiazolidin-2-ylidene)carbamate] | 0 | 50 to 100 |  |  |
| CC(C)c1ccccc1N1C(=O)CS/C1=N\C(=O)OCC(F)c1ccc(-c2ncn(-c3ccc(OC(F)(F)F)cc3)n2)cc1 (stereo not shown) [A34, 2-Fluoro-2-(4-(1-(4-(trifluoromethoxy)phenyl)-1H-1,2,4-triazol-3-yl)phenyl)ethyl (Z)-(3-(2-isopropylphenyl)-4-oxothiazolidin-2-ylidene)carbamate] | 50 to 100 | 50 to 100 |  |  |
| CCC(C)Oc1ccc(C)cc1N1C(=O)CS/C1=N\C(=O)OCCc1ccc(-c2ncn(-c3ccc(OC(F)(F)F)cc3)n2)cc1 (stereo not shown) [A35, 4-(1-(4-(Trifluoromethoxy)phenyl)-1H-1,2,4-triazol-3-yl)phenethyl (Z)-(3-(2-(sec-butoxy)-5-methylphenyl)-4-oxothiazolidin-2-ylidene)carbamate] | 50 to 100 | 50 to 100 |  |  |
| O=C(/N=C1\SCC(=O)N1c1cc(Cl)ccc1OC(F)(F)F)OCC(F)c1ccc(-c2ncn(-c3ccc(OC(F)(F)F)cc3)n2)cc1 (stereo not shown) [A36, 2-Fluoro-2-(4-(1-(4-(trifluoromethoxy)phenyl)-1H-1,2,4-triazol-3-yl)phenyl)ethyl (Z)-(3-(5-chloro-2-(trifluoromethoxy)phenyl)-4-oxothiazolidin-2-ylidene)carbamate] | 50 to 100 | 50 to 100 |  |  |
| COc1ccc(N2C(=O)CS/C2=N\C(=O)OCC(F)c2ccc(-c3ncn(-c4ccc(OC(F)(F)F)cc4)n3)cc2)c(C)c1 (stereo not shown) [A37, 2-Fluoro-2-(4-(1-(4-(trifluoromethoxy)phenyl)-1H-1,2,4-triazol-3-yl)phenyl)ethyl (Z)-(3-(4-methoxy-2-methylphenyl)-4-oxothiazolidin-2-ylidene)carbamate] | 0 | 50 to 100 |  |  |

— patent US11297838B2, “Pesticidal compositions and methods” (CORTEVA AGRISCIENCE LLC, priority 2018, dated 2022)
